Experimental data as given in article PMC12615753, “Glutathione as a taste modulator: molecular mechanisms of interaction with umami and sweet taste receptors” (Food Chemistry: Molecular Sciences, 2025).

Molecular target: T1, hTAS1R1 E301A/rTAS1R3 (UniProt Q7RTX1+Q923K1, E301A)
T1 construct: UniProtKB number Q7RTX1–1); The cDNA coding region of rTAS1R3 was synthesized with optimized-codon usage for human expression; expressed in transfected cells; host or cells: HEK293T/17
T1 sequence (Q7RTX1 21-841 E301A): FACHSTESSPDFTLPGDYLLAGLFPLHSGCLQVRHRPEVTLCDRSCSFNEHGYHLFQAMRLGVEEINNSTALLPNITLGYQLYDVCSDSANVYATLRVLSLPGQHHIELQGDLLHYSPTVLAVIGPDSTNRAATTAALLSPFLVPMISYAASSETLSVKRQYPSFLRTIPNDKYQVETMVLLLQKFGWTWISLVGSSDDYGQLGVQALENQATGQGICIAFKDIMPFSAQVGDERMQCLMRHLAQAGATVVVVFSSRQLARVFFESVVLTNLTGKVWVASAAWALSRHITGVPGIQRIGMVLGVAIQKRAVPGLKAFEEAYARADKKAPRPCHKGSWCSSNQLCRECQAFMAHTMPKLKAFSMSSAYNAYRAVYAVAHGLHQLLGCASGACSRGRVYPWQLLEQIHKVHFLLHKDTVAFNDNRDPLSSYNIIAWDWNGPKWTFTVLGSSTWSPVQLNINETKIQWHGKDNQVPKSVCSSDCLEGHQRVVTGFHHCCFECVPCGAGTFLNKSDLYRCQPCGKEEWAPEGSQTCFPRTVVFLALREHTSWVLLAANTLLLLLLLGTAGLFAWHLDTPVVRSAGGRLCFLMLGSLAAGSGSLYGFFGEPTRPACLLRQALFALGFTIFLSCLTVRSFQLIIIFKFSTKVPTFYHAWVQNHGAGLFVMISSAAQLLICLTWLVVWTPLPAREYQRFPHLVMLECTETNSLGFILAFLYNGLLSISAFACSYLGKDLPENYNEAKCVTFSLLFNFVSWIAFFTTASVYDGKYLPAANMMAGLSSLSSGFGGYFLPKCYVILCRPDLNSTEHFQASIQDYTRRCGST
T1 sequence (Q923K1 21-858): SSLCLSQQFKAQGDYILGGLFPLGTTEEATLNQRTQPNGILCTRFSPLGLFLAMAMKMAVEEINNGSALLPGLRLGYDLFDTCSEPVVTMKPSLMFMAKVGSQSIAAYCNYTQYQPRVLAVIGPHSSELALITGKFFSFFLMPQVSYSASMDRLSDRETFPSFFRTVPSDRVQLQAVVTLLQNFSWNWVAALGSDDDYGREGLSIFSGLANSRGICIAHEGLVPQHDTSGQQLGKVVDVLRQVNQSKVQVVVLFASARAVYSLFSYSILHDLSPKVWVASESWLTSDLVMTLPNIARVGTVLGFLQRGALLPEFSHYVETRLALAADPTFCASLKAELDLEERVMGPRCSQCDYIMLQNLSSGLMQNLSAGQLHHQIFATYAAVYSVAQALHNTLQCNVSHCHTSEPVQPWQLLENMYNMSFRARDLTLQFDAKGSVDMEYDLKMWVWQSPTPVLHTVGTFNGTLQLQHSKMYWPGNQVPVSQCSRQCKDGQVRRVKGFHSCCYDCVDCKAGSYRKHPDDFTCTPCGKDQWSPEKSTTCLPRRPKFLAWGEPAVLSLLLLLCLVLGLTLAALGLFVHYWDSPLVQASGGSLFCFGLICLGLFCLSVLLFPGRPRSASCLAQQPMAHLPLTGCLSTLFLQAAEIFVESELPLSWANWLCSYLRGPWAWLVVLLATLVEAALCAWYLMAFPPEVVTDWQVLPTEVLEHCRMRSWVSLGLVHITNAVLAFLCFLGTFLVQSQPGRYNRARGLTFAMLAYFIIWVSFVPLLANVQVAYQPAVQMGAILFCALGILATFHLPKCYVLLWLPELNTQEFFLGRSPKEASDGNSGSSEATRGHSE
Assay: cell-based
Assay type: cell-based, human, rat
Conditions: for response to the agonist alone, vs WT: E301A
Text: Chimeric Gα proteins, such as Gα16Gust44, Gα16Gi3 or Gα15i2, are widely used in the functional expression of TAS1R receptors ([Backes et al., 2015]; [Suess et al., 2015]; [Toda et al., 2021], [Toda et al., 2013], [Toda et al., 2018]; [Zhang et al., 2008]). Chimeric Gα15i2 (([Toda et al., 2013]), Supplementary data) was generated by replacing the last five residues of the C-terminal tail of rat Gα15i2 (EINLL) (UniProt number G3V6N8; https://www.uniprot.org/uniprot/) with the counterpart sequence from human GNAI2 (DCGLF) (UniProt number P04899-1) and cloning into the pcDNA3.1/Hygro vector (Invitrogen, Thermo Fisher Scientific, Illkirch, France) between the HindIII and NotI restriction sites, resulting in the plasmid pcDNA3.1-Gα15i2. Chimeric Gα16Gust44 construct have already been reported ([Raliou et al., 2011]). Briefly, Gα16Gust44 was generated by replacing the C-terminal of Gα16 with the C-terminal 44 residues of gustducin. As previously described, hTAS1R1 was amplified from human fungiform papillae cDNA and cloned and inserted into pcDNA3 (Invitrogen), generating pcDNA3-TAS1R1-WT (wild-type) ([Raliou et al., 2011]). […] The cDNA coding region of rTAS1R3 was synthesized with optimized-codon usage for human expression (Genewiz) and was cloned and inserted into the mammalian pcDNA4/myc-HisA (Invitrogen) expression vector between the EcoRI and NotI restriction sites, resulting in the plasmid pcDNA4-rTAS1R3. […] The sequence integrity of all the plasmid constructs was verified via automated DNA sequencing (Genewiz).
The hTAS1R1 mutants were co-expressed with the rTAS1R3 subunit in HEK293 cells. […] As a control, the functionality of the mutated receptors was checked after stimulation with S807 (Fig. S8), which interacts with TAS1R1-TMD ([Zhang et al., 2008]).

| SMILES | EC50 [mM] | response to the agonist alone, vs WT |
| --- | --- | --- |
| N[C@@H](CCC(=O)N[C@@H](CS)C(=O)NCC(=O)O)C(=O)O [GSH, γ-L-glutamyl-L-cysteinyl-glycine] | > 30 | fully abolished |
| N[C@@H](CCC(=O)O)C(=O)O [L-Glu, L-glutamic acid, reference compound] |  | completely suppressed |
